# Results from patent US3989835A, “Method of using 6-substituted amino phenyl-2,3,5,6-tetra-hydro[2,1-b]thiazoles for controlling gastrointestinal nematodes” (American Cyanamid Company, priority 1974, dated 1976).
# Counter-ions that a name gives are not always drawn. Like-named read-outs stand apart in the source and are kept apart here.
# Tested on: Nematospiroides dubius
# Assay: Anthelmintic efficacy against N. dubius in mice, single oral dose
# Type: in vivo, Nematospiroides dubius (in albino female mice)
# Details: for ED50: read-out: Approx. ED50; for inhibition in vivo at 5 mg/kg: single oral dose 5.0 mg./Kg.; for inhibition in vivo at 60 mg/kg: single oral dose 60 mg./Kg.
# Experimental: Albino female mice are each inoculated with about 20 infectious larvae of Nematospiroides dubius. This nematode is a representative of the economical important trichostrongylis worms of ruminants and other hosts, and of nematodes in general. Twenty-two days after inoculation, groups of four randomly selected mice containing adult N. dubius are given single oral doses of test compounds dissolved or suspended in 0.4 ml. of water per 20 gram mouse. At 26 or 27 days after inoculation, treated mice and in each test four randomly selected groups of untreated mice are necropsied. The number of worms in the small intestine of each mouse are determined by microscopic examination. Average worm numbers for each treated group and for the untreated controls are computed and the percent efficacy determined by the customary formula:
# (Average Worms in Control - Average Worms in Treated)/(Average Worms in Control) X 100.
# [1] = as Base, single oral dose, mice, > indicates inactive at dose shown
# [2] = Heligmosomoides polygyrus, po, as Base, single oral dose, mice, > indicates inactive at dose shown
# [3] = Heligmosomoides polygyrus, po, molar-adjusted, read-out: Percent Nematospiroides Activity
# [4] = Heligmosomoides polygyrus, po, single oral dose 10 mg./Kg., molar-adjusted, read-out: Percent Nematospiroides Activity
smiles,measurement,setting,value
"O=[N+]([O-])c1ccc(C2CN3CCSC3=N2)cc1 (stereo not drawn) [d HCl NO2 para, reference compound]",Approx. ED50,[1],> 200 Mg./Kg.
"Oc1cccc(C2CN3CCSC3=N2)c1 (racemic) [dl OH meta, reference compound]",ED50,[2],> 10 mg/kg
"Nc1ccc(C2CN3CCSC3=N2)cc1 (stereo not drawn) [l 2HCl NH2 para, reference compound]",ED50,[2],> 10 mg/kg
"S=C=Nc1cccc(C2CN3CCSC3=N2)c1 (racemic) [dl Base N=C=S meta, reference compound]",ED50,"Heligmosomoides polygyrus, po",20 mg/kg
"Nc1cccc(C2CN3CCSC3=N2)c1 (stereo not drawn) [d 2HCl NH2 meta, d-2,3,5,6-Tetrahydro-6-(m-aminophenyl)imidazo[2,1-b]thiazoleDihydrochloride]",Approx. ED50,[1],10 Mg./Kg.
CS(=O)(=O)Nc1cccc(C2CN3CCSC3=N2)c1 (stereo not drawn) [H--N--SO2 CH3],inhibition in vivo at 100 mg/kg,"Heligmosomoides polygyrus, po, single oral dose 100 mg./Kg., molar-adjusted, read-out: Percent Nematospiroides Activity",100%
"CC(C)(C)C(=O)Nc1cccc(C2CN3C=CSC3=N2)c1 (stereo not drawn) [5,6-dihydro HN-CO-C(CH3)3, 3'-(5,6-dihydroimidazo[2,1-b]thiazol-6-yl)pivalanilide]",ED50,[2],7.5 mg/kg
same,inhibition in vivo at 5 mg/kg,[3],35%
same,inhibition in vivo at 10 mg/kg,[4],80%
O=C(Cc1ccccc1)Nc1cccc(C2CN3CCSC3=N2)c1 (stereo not drawn) [Table XII b1825],inhibition in vivo at 2 mg/kg,"Heligmosomoides polygyrus, po, single oral dose 2.0 mg./Kg., molar-adjusted, read-out: Percent Nematospiroides Activity",44%
same,inhibition in vivo at 5 mg/kg,[3],76%
same,inhibition in vivo at 10 mg/kg,[4],95%
"COc1cccc(C2CN3CCSC3=N2)c1 (racemic) [dl HBr OCH3 meta, reference compound]",ED50,[2],> 10 mg/kg
Nc1ccc(Br)c(C2CN3CCSC3=N2)c1 (stereo not drawn) [Table XIII b1902],inhibition in vivo at 30 mg/kg,"Heligmosomoides polygyrus, po, single oral dose 30 mg./Kg., molar-adjusted, read-out: Percent Nematospiroides Activity",37%
same,inhibition in vivo at 60 mg/kg,[3],97%
"CC(C)N(C=O)c1cccc(C2CN3CCSC3=N2)c1 (stereo not drawn) [(CH3)2 CH--N--CHO, N-isopropyl-3'-(2,3,5,6-tetrahydroimidazo[2,1-b]thiazol-6-yl) formanilide dihydrochloride]",inhibition in vivo at 40 mg/kg,"Heligmosomoides polygyrus, po, single oral dose 40 mg./Kg., molar-adjusted, read-out: Percent Nematospiroides Activity",99%
same,inhibition in vivo at 60 mg/kg,[3],100%
"CNc1ccc(C2CN3CCSC3=N2)cc1 (stereo not drawn) [l 2HCl NH--CH3 para, reference compound]",ED50,[2],> 50 mg/kg
CC(=O)Nc1cccc(C2CN3CCSC3=N2)c1 (stereo not drawn) [H--N--CO--CH3 l-],Percent Nematospiroides Activity,"single oral dose 4.0 mg./Kg., molar-adjusted",51%
same,Percent Nematospiroides Activity,"single oral dose 10 mg./Kg., molar-adjusted",100%
"O=CNc1ccc(C2CN3CCSC3=N2)cc1 (stereo not drawn) [l Base NH--HCO para, reference compound]",Approx. ED50,[1],> 10 Mg./Kg.
c1ccc(CNc2cccc(C3CN4CCSC4=N3)c2)cc1 (stereo not drawn) [Table XII b1716],inhibition in vivo at 5 mg/kg,[3],56%
same,inhibition in vivo at 10 mg/kg,[4],91%
same,inhibition in vivo at 20 mg/kg,"Heligmosomoides polygyrus, po, single oral dose 20 mg./Kg., molar-adjusted, read-out: Percent Nematospiroides Activity",95%
"Nc1ccc(C2CN3CCSC3=N2)cc1 (stereo not drawn) [d 2HCl NH2 para, reference compound]",Approx. ED50,[1],> 20 Mg./Kg.
"Nc1ccccc1C1CN2CCSC2=N1 (racemic) [dl 2HCl NH2 ortho, reference compound]",ED50,[2],> 100 mg/kg
"Cc1cccc(C2CN3CCSC3=N2)c1 (racemic) [dl HCl CH3 meta, reference compound]",ED50,[2],> 10 mg/kg
